Patent US9492482B2, “Engineered cells expressing multiple immunomodulators and uses thereof” (Intrexon Corporation, priority 2008, dated 2016)

System: DC.RheoIL12
Test: IL-12 secretion from DC.RheoIL12 with or without activating ligand
Assay type: cell-based
Conditions: in the presence of the activating ligand RG-115830 but not in the absence of the ligand
Method: In one embodiment, the invention provides an engineered population of immune cells and TSC. In one embodiment, day 7 cultured DC are treated with recombinant adenovirus encoding an immunomodulator and/or IL-12 driven off a constitutive or inducible promoter, or are infected with mock, control adenovirus vector (rAdψ5), over a range of multiplicity of infection (MOIs). After 48 h, infected DC are harvested and analyzed for phenotype and for production of an immunomodulator and/or IL-12 using a specific ELISA kit (BD-PharMingen, San Diego, Calif.), with a lower level of detection of 62.5 pg/ml.

In the case of `CCCC(N(NC(=O)c1cccc(OC)c1CC)C(=O)c1cc(C)cc(C)c1)C(C)(C)C` (stereo not shown) [RG-115830, 3,5-Dimethyl-benzoic acid N-(1-tert-butyl-butyl)-N′-(2-ethyl-3-methoxy-benzoyl)-hydrazide], the “IL-12 secreted from DC.RheoIL12” value is reported as “elevated levels of IL-12 are secreted”.
